Data as given in article PMC3632306 (Journal of medicinal chemistry, 2013).
Entries after “also recorded” stand apart in the source; their conditions may differ.

Key:
[1] = target: T1, PLD1 (Homo sapiens, UniProt Q13393)
T1 sequence (Q13393 1-1074): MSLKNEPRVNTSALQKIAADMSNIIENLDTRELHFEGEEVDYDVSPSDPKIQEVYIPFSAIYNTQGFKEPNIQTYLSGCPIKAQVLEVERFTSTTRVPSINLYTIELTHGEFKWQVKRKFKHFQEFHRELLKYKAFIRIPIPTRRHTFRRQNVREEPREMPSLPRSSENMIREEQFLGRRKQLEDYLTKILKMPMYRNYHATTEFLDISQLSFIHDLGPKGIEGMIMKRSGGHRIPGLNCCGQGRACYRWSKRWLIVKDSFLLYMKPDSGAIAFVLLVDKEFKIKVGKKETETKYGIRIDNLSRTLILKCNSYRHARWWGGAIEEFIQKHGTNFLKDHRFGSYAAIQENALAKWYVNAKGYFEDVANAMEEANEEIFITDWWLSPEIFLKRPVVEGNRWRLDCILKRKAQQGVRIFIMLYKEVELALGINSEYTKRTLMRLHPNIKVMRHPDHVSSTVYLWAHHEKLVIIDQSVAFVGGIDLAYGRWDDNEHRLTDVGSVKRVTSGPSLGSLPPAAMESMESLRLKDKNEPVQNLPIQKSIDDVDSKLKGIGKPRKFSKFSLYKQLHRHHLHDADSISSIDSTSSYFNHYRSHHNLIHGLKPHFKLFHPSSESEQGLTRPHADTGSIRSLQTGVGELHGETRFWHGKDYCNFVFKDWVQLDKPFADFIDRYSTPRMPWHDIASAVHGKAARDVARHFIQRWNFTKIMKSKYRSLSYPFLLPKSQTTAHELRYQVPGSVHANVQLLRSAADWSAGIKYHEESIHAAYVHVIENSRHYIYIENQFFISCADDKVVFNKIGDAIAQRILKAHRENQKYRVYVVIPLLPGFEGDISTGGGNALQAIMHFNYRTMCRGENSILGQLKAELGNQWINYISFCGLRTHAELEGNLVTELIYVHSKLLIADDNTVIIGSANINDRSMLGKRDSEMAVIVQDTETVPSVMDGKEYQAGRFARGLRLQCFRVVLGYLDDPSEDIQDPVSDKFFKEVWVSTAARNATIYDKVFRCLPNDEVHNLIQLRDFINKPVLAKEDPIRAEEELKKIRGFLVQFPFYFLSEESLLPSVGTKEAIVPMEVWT

[2] = in vivo; conditions: mouse, ip, 10 mg/kg
[3] = test system: U87-MG cells; test: U87-MG cell viability; format: cell-based, human; conditions: concentrations up to 10 μM, relative to DMSO, 10% FBS
[4] = not given; remark: listed apart in the source
[5] = target: PLD2 (Homo sapiens, UniProt O14939); conditions: purified PLD proteins; data comparable to cell-based assay
Sequence of PLD2 (O14939 whole entry, species assumed): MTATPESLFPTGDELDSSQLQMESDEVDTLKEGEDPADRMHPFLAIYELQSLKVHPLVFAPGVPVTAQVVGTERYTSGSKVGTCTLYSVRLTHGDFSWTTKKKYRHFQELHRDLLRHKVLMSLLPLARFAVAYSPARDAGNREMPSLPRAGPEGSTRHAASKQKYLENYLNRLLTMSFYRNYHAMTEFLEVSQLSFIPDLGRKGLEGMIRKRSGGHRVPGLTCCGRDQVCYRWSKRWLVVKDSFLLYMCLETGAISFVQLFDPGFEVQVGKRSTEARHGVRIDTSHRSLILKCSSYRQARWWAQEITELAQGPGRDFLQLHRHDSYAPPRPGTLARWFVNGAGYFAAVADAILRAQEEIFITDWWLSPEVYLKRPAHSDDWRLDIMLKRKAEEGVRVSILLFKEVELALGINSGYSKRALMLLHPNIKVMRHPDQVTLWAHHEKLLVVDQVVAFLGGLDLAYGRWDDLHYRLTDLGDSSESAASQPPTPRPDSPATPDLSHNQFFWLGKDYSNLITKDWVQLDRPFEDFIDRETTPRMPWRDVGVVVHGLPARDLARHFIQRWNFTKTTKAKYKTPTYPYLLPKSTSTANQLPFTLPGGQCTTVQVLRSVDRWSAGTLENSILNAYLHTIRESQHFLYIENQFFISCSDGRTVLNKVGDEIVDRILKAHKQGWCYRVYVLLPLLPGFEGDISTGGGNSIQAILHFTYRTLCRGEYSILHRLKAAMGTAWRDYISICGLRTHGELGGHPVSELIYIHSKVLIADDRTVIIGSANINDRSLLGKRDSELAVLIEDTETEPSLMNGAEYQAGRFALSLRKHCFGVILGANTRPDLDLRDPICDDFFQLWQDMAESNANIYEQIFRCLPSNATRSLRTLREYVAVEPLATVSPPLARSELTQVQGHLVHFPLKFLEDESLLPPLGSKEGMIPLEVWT

[6] = test system: U87-MG glioblastoma cells; test: Invasive migration in U87-MG cells; format: cell-based, human; conditions: for Invasive migration in U87-MG cells: 100 nM to 10 μM, 48 hours

Question: Which “Concentration up to which PLD1 is not inhibited” value [1] does the source give for `O=C(NCCN1CCC2(CC1)C(=O)NCN2c1cccc(F)c1)c1ccc(F)c(F)c1` [ML298, 3,4-Difluoro-N-(2-(1-(3-fluorophenyl)-4-oxo-1,3,8-triazaspiro[4.5]decan-8yl)ethyl)benzamide] here?
Answer: > 20 µM

Question: And the “PLD1 inhibition” value [1]?
Answer: no inhibition of PLD1

Question: And the AUC at 6 h [2]?
Answer: 1.55 µM·h

Question: And the “Rat CLHEP” value?
Answer: 60.9 mL/min/kg

Question: What about the “Effect on U87-MG cell viability” value [3] of the same compound?
Answer: no effect

Question: What about the “Human CLHEP” value [4] of the same compound?
Answer: 17.8 mL/min/kg

Question: What about the “Direct action on PLD2 in biochemical assay” value [5] of the same compound?
Answer: acted directly on PLD2

Question: And the “Invasive migration in U87-MG cells” value [6]?
Answer: dose-dependent decrease; also recorded: decreased invasive migration

Question: What about the “Dose at which decrease in invasive migration reached statistical significance” value ([6]; U87-MG cells) of the same compound?
Answer: 10 µM

Question: What does the source list for `Cc1cccc(N2CNC(=O)C23CCN(C[C@H](C)NC(=O)c2ccc(Br)cc2)CC3)c1` [ML299]?
Answer: Effect on U87-MG cell viability [3]: no effect; Invasive migration in U87-MG cells [6]: dose-dependent decrease; also recorded: decreased invasive migration
